Data from patent publication US20030031688A1, “Cosmetic composition with improved skin moisturizing properties” (priority 2001, published 2003).

Assay: Moisture uptake of powder samples in controlled humidity chamber
Type: physicochemical
Conditions: 65% relative humidity at 25° C.
Experimental: A mixture of urea and coenzyme Q10 (9:1 Wt./wt.)) was prepared as a dry blend of the raw materials by manually mixing urea (9 parts by weight) and coenzyme Q10 (1 part by weight), with mortar and pestle grinding as necessary, to provide an essentially homogeneous powder. The moisture-absorbing properties were determined based on the amount of moisture uptake over time. For comparison, the moisture-absorbing properties of powder samples of the unblended individual raw materials, i.e., urea alone and coenzyme Q10 alone, were measured.
The samples were placed in a controlled humidity chamber (65% relative humidity at 25° C.) and the mass of each sample was measured at various time points. The water uptake is reflected by the increase in mass over time.
The percentage values shown in Table 1 reflect the percentage increase in mass relative to the weight of the starting sample (prior to being placed in the controlled humidity chamber). The expected percentage values for the blend (“Expected”) were calculated on the basis of the fractional contribution of each component alone, as represented by the following equation: Expected %=(0.9×% measured for urea alone)+(0.1×% measured for Q10 alone).

| percentage increase in mass relative to the weight of the starting sample (water uptake) (time 5) [%] | percentage increase in mass relative to the weight of the starting sample (water uptake) (time 10) [%] | percentage increase in mass relative to the weight of the starting sample (water uptake) (time 15) [%] | percentage increase in mass relative to the weight of the starting sample (water uptake) (time 30) [%] | percentage increase in mass relative to the weight of the starting sample (water uptake) (time 45) [%] | percentage increase in mass relative to the weight of the starting sample (water uptake) (time 1 hr) [%] | SMILES |
| --- | --- | --- | --- | --- | --- | --- |
| 1.0 | 0.1 | 0.5 | 1.5 | 2.4 | 3.1 | COC1=C(OC)C(=O)C(C/C=C(\C)CC/C=C(\C)CC/C=C(\C)CC/C=C(\C)CC/C=C(\C)CC/C=C(\C)CC/C=C(\C)CC/C=C(\C)CC/C=C(\C)CCC=C(C)C)=C(C)C1=O [Product Q10, coenzyme Q10] |
| 31.0 | 4.0 | 5.5 | 10.6 | 16.6 | 22.4 | NC(N)=O [Urea] |
